Measured values as given in patent publication US9371275B2, “5-aminolevulinic acid prodrugs for use in photodynamic therapy and photodynamic diagnosis” (Swedish Pharma AB, priority 2008, dated 2016).

What was measured:
human living cells = assay: PpIX synthesis in human living cells, spectrofluorometric measurements (fluorescence at 632 nm); type: cell-based
Excerpt: Using the spectrum of PpIX as reference (FIG. 2), a comparison between PpIX synthesis by the oxime compound according to the invention with that based on the methyl ester of 5ALA currently in clinical use (MetVix), was made on human living cells using spectrofluorometric measurements.
Diamonds=5ALA methyl ester (MetVix); Squares=5ALA oxime 20% w/w in Essex™ cream.

[1] = after application of 5ALA or known derivatives; cited from earlier work
[2] = after intravenous injection; very slow clearance rate from the body; cited from earlier work

NCC(CCC(=O)O)=NO [5-ALA oxime]
production of PpIX (human living cells): capable of producing PpIX | time for which elevated levels of PpIX are retained after application (human living cells; 5ALA oxime 20% w/w in Essex cream, human cells, fluorescence at 632 nm): at least 6 h | concentration of PpIX generated compared with 5ALA methyl ester (MetVix) (human living cells; 3 h after application, 5-ALA oxime 20% (w/w) in Essex cream, human cells): higher concentration of PpIX

NCC(=O)CCC(=O)O [5ALA, 5-aminolevulinic acid]
time after application at which PpIX concentration reaches optimal therapeutic window [1]: 2 to 4 h | time in which PpIX concentration decays to normal background levels [1]: 36 to 48 h

Oc1cccc(-c2c3nc(c(-c4cccc(O)c4)c4ccc([nH]4)c(-c4cccc(O)c4)c4nc(c(-c5cccc(O)c5)c5ccc2[nH]5)CC4)C=C3)c1 [Foscan, temoporfin]
duration of patient hypersensitization [2]: up to 3 weeks
